Among the data in BindingDB's records for PubMed 10869410 (Centre De Recherches De Croissy, 2000) are Ki values, retold here.

Assay [1] addresses T1, Alpha-2A adrenergic receptor [16-465] (Rattus norvegicus, UniProt P22909).
T1 construct: 16-465
T1 sequence (P22909 whole entry): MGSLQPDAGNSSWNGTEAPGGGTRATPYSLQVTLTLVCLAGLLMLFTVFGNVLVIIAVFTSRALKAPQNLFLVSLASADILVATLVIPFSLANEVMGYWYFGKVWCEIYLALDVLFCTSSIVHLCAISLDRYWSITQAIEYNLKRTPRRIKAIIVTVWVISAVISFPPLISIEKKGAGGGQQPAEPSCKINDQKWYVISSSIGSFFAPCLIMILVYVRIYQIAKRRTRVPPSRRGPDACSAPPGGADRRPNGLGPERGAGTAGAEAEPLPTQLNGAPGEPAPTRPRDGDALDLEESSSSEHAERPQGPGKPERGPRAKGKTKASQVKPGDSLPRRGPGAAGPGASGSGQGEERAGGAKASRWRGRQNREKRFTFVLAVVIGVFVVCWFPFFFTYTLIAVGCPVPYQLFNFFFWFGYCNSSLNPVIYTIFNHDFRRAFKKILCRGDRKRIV

The next assay deals with D(3) dopamine receptor (Homo sapiens, UniProt P35462).
D(3) dopamine receptor, sequence (P35462 as listed by the source): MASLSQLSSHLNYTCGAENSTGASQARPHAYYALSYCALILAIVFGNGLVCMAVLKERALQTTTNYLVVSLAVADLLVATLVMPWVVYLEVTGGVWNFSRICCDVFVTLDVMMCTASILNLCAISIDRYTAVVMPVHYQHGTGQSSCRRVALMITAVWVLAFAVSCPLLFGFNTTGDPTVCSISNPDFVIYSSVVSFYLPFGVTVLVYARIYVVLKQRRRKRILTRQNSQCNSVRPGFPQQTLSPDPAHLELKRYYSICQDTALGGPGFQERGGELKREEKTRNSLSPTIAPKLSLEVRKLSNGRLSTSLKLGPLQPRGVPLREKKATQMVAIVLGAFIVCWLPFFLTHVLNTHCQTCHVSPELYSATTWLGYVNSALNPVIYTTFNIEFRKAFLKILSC
Another assay deals with D(1B) dopamine receptor (Homo sapiens, UniProt P21918).
D(1B) dopamine receptor, sequence (P21918 whole entry): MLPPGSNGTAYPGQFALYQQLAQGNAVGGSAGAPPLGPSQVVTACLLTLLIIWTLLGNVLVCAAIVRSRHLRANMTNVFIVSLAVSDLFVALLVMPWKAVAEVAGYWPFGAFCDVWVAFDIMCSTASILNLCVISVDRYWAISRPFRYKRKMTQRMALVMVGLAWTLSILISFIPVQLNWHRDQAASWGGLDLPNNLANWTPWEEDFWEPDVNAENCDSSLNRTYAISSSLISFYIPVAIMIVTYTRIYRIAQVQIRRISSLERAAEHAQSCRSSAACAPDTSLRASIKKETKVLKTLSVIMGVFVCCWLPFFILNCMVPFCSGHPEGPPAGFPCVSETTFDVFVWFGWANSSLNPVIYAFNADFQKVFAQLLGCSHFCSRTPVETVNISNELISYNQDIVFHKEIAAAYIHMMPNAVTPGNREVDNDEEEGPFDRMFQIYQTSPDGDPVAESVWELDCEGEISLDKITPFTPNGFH
Assay [2] deals with 5-hydroxytryptamine receptor 2C (Sus scrofa, UniProt G7ZKZ7).
5-hydroxytryptamine receptor 2C (Sus scrofa, UniProt G7ZKZ7), sequence (G7ZKZ7 whole entry): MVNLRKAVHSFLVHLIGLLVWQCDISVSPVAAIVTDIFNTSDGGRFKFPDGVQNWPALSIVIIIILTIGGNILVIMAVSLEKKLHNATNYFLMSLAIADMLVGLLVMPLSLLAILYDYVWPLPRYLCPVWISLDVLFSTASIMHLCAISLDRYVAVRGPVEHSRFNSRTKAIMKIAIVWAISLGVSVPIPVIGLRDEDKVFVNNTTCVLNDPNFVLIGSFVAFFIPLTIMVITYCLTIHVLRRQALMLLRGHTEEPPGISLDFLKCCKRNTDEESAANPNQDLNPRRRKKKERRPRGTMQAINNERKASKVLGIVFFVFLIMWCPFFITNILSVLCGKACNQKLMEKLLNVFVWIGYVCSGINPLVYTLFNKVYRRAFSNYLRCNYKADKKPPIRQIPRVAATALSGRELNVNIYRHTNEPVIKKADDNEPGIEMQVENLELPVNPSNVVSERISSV
For assay [3], the target named is T2, 5-hydroxytryptamine receptor 1A (Rattus norvegicus, UniProt P19327).
T2 sequence (P19327 whole entry): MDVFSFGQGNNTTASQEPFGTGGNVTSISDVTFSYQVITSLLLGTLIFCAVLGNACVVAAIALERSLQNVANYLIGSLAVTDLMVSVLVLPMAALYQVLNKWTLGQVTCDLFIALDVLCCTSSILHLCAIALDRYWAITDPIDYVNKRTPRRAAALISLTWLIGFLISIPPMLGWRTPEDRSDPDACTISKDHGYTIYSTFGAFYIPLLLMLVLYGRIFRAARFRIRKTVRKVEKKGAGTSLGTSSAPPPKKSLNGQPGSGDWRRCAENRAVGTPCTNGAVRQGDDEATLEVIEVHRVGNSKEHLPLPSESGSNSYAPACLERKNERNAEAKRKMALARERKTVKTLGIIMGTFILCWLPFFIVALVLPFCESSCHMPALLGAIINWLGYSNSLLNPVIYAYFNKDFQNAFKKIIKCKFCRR

Assay [4] addresses D(2) dopamine receptor (Rattus norvegicus, UniProt P61169).
Assay [5] concerns the target 5-hydroxytryptamine receptor 2B (Homo sapiens, UniProt P41595).
Assay [6] addresses 5-hydroxytryptamine receptor 2C (Homo sapiens, UniProt P28335).
The target in assay [7] is Sigma non-opioid intracellular receptor 1 (Cavia porcellus, UniProt Q60492).
Sigma non-opioid intracellular receptor 1, sequence (Q60492 whole entry): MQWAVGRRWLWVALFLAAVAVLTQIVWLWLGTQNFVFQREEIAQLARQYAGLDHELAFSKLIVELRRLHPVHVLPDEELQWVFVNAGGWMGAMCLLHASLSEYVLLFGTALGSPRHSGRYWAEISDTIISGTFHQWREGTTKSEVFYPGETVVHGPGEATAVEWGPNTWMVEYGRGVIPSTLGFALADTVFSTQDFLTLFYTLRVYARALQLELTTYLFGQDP
Assay [8] deals with 5-hydroxytryptamine receptor 2A (Rattus norvegicus, UniProt P14842).
5-hydroxytryptamine receptor 2A (Rattus norvegicus, UniProt P14842), sequence (P14842 whole entry): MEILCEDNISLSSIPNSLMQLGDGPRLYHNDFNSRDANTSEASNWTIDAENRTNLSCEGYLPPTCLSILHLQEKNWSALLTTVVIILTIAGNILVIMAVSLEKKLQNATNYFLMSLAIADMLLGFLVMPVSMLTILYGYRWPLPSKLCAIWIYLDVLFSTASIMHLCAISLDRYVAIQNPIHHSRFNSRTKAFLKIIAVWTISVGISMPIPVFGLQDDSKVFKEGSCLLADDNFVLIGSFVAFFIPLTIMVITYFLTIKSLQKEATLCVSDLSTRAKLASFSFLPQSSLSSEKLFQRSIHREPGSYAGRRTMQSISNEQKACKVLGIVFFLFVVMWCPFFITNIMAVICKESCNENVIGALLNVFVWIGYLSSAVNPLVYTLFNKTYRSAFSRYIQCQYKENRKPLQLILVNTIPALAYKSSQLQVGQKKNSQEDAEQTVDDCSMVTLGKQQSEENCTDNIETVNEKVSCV
For assay [9], the target named is T3, Alpha-1A adrenergic receptor (Rattus norvegicus, UniProt P43140).
T3 sequence (P43140 whole entry): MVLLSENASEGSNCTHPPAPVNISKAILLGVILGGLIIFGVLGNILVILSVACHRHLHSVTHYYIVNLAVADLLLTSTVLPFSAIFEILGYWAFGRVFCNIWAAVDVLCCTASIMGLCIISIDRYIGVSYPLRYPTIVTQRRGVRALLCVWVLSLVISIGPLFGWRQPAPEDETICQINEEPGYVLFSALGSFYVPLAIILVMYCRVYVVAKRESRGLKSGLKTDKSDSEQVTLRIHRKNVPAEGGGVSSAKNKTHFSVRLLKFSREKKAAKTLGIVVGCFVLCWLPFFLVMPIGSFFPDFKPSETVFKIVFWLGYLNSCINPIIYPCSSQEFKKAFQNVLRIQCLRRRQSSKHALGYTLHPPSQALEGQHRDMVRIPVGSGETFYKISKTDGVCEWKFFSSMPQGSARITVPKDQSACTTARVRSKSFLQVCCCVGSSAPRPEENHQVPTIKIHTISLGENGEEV

Assay [10] has as its target 5-hydroxytryptamine receptor 2A (Homo sapiens, UniProt P28223).
Assay [11] addresses D(2) dopamine receptor (Homo sapiens, UniProt P14416).
Assay [12] has as its target 5-hydroxytryptamine receptor 1D (Homo sapiens, UniProt P28221).
Assay [13] deals with 5-hydroxytryptamine receptor 1B (Homo sapiens, UniProt P28222).
5-hydroxytryptamine receptor 1B (Homo sapiens, UniProt P28222), sequence (P28222 whole entry): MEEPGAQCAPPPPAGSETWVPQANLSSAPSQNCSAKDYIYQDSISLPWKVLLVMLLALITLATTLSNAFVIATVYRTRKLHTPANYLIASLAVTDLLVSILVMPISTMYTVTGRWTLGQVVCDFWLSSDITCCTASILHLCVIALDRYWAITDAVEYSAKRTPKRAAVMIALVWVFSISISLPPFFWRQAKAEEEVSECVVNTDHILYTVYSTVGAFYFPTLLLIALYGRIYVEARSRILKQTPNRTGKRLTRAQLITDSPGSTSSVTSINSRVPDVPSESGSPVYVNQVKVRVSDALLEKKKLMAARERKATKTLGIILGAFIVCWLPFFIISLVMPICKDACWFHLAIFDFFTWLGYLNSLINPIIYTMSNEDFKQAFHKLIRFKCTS
The target in assay [14] is D(1A) dopamine receptor (Homo sapiens, UniProt P21728).
The target of another assay is T4, D(4) dopamine receptor (Homo sapiens, UniProt P21917).
T4 sequence (P21917 whole entry): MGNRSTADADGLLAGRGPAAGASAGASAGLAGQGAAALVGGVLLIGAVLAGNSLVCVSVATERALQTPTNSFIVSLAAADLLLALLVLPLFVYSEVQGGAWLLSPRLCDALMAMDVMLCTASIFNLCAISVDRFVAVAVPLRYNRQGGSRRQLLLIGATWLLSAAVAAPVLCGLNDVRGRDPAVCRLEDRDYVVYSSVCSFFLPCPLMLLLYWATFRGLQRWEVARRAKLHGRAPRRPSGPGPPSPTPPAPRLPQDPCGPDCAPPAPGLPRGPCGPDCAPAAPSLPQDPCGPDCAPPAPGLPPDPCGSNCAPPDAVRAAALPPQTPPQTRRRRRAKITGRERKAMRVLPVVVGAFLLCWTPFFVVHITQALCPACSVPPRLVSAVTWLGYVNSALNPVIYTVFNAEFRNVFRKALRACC

The target in assay [15] is 5-hydroxytryptamine receptor 1B (Cavia porcellus, UniProt O08892).
Assay [16] addresses D(1A) dopamine receptor (Rattus norvegicus, UniProt P18901).
Assay [17] concerns the target Muscarinic acetylcholine receptor M1 (Homo sapiens, UniProt P11229).
Assay [18] deals with 5-hydroxytryptamine receptor 1A (Homo sapiens, UniProt P08908).
The target of assay [19] is 5-hydroxytryptamine receptor 3A (Homo sapiens, UniProt P46098).

Structures are written as SMILES. Where “and” joins values, the source holds several entries; their conditions need not be identical. Identical values can stand only once.

D(2) dopamine receptor (Homo sapiens, UniProt P14416), sequence (P14416 whole entry): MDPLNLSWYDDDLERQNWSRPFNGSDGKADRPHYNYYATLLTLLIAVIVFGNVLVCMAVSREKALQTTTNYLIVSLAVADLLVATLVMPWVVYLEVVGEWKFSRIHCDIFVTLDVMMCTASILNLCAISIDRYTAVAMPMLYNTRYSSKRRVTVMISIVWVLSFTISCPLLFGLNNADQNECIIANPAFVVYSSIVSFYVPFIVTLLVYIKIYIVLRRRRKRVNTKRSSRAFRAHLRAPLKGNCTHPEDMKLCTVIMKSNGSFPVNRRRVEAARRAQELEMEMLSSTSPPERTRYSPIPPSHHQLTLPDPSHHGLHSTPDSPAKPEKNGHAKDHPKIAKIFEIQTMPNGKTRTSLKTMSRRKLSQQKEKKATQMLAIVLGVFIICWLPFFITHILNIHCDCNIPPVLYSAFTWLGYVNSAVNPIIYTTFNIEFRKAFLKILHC
5-hydroxytryptamine receptor 2B, sequence (P41595 whole entry): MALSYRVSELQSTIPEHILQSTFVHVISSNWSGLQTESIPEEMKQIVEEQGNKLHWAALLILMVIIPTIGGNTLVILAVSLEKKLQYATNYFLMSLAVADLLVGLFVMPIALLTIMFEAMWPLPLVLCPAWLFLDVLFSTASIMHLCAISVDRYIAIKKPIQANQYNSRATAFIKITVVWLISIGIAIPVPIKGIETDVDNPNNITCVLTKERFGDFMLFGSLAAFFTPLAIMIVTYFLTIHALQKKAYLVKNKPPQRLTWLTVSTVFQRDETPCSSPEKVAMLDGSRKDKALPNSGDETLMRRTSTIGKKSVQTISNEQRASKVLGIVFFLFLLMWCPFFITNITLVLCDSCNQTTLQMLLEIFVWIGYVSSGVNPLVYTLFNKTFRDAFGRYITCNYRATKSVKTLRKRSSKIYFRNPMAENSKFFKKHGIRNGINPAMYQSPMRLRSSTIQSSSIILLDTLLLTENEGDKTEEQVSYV
D(2) dopamine receptor (Rattus norvegicus, UniProt P61169), sequence (P61169 whole entry): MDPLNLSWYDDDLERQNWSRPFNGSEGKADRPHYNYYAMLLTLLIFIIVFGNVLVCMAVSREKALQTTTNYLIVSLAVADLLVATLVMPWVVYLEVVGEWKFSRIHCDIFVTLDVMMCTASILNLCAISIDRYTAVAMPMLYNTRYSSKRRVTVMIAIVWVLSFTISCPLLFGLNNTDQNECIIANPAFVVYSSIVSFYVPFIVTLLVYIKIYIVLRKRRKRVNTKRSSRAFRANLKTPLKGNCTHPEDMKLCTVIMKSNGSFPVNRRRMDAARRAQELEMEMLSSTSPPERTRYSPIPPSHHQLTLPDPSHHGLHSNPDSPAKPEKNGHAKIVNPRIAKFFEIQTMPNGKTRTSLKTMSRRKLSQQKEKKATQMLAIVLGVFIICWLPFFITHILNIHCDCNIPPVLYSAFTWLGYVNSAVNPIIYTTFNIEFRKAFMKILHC
5-hydroxytryptamine receptor 1D, sequence (P28221 whole entry): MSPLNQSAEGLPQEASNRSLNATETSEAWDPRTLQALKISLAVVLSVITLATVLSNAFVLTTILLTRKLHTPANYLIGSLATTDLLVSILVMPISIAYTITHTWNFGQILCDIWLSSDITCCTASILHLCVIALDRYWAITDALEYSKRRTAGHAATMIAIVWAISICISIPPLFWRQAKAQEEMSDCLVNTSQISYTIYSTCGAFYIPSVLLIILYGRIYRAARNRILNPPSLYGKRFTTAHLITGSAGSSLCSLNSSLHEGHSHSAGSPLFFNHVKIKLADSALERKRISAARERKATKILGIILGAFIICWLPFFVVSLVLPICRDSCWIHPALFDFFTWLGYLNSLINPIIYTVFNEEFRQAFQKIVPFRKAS
5-hydroxytryptamine receptor 2C (Homo sapiens, UniProt P28335), sequence (P28335 whole entry): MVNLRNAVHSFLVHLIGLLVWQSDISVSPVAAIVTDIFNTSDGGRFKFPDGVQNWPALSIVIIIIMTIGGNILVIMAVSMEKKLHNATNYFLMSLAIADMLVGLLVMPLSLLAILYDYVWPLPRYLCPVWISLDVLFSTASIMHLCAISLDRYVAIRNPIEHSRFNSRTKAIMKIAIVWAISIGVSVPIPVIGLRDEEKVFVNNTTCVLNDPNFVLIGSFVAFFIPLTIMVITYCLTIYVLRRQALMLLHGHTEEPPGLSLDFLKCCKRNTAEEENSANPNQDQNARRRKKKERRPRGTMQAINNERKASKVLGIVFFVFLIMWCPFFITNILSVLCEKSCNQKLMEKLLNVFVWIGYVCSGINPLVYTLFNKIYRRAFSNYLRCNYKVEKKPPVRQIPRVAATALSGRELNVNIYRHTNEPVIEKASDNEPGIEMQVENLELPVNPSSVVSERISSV

`CCCN(CCC)C1CCc2cc(CS(=O)(=O)c3ccc(OC)cc3)ccc2C1` (stereo not given) [GR218231]: the Ki in assay [1] was 398 nM; at D(3) dopamine receptor, 1 nM and 1.35 nM; on D(1B) dopamine receptor, 1000 nM; in assay [2] it was 1000 nM; in assay [3], 501 nM; on D(2) dopamine receptor [4], 79.4 nM. Also, the Ki in assay [5] amounted to 1000 nM; in assay [6] it was 1000 nM; in [7], 158 nM; in [8] it was 1000 nM; in assay [9] it was 1000 nM; in [10], 1000 nM. Also, the inhibition constant Ki was 63.1 nM and 138 nM at D(2) dopamine receptor [11]; 1000 nM in assay [12]; 1000 nM in [13]; 1000 nM at D(1A) dopamine receptor [14]; more than 10000 nM at D(4) dopamine receptor.
As to `OC1(c2ccc(Cl)cc2)CCN(Cc2c[nH]c3ccccc23)CC1` [L741,626], the Ki was 1260 nM in [1]; 63.1 nM and 87.1 nM on D(3) dopamine receptor; 631 nM at D(1B) dopamine receptor; 3980 nM in assay [2]; 3980 nM in assay [3]; 6.31 nM on D(2) dopamine receptor [4]. Moreover, the Ki in [5] turned out to be 631 nM; in [8], 1000 nM; in [9], 251 nM; in assay [12] it was 1000 nM; in assay [13], 1000 nM; on D(4) dopamine receptor, 316 nM.
For `N#Cc1ccc2c(c1)[C@H]1CN(CCCCNC(=O)c3ccc(-c4ccccc4)cc3)C[C@@H]1CO2` [S33084], the Ki was 1000 nM in assay [1]; 0.25 nM and 0.4 nM on D(3) dopamine receptor; 1260 nM at D(1B) dopamine receptor; 126 nM in assay [3]; 1000 nM in assay [15]; 50.1 nM on D(2) dopamine receptor [4]. For the same compound, the inhibitory constant (Ki) turned out to be 1000 nM at D(1A) dopamine receptor [16]; 398 nM in assay [17]; 158 nM in assay [5]; 79.4 nM in [6]; 1000 nM in [7]; 1000 nM in assay [8]. Besides, the Ki worked out at 126 nM in assay [9]; 1000 nM in assay [10]; 1000 nM in assay [18]; 52.5 nM at D(2) dopamine receptor [11]; 126 nM in assay [12]; 794 nM in [13]. Moreover, the values for the Ki (on D(1A) dopamine receptor [14]; at D(4) dopamine receptor; in assay [19]) were 501 nM, 2000 nM and 1000 nM, respectively.

What is called Ki is the dissociation constant of the complex between target and ligand, obtained from inhibition or displacement.
